Some results are limits rather than exact numbers.

Chain of ROCK2 (human) (O75116 whole entry, looked up): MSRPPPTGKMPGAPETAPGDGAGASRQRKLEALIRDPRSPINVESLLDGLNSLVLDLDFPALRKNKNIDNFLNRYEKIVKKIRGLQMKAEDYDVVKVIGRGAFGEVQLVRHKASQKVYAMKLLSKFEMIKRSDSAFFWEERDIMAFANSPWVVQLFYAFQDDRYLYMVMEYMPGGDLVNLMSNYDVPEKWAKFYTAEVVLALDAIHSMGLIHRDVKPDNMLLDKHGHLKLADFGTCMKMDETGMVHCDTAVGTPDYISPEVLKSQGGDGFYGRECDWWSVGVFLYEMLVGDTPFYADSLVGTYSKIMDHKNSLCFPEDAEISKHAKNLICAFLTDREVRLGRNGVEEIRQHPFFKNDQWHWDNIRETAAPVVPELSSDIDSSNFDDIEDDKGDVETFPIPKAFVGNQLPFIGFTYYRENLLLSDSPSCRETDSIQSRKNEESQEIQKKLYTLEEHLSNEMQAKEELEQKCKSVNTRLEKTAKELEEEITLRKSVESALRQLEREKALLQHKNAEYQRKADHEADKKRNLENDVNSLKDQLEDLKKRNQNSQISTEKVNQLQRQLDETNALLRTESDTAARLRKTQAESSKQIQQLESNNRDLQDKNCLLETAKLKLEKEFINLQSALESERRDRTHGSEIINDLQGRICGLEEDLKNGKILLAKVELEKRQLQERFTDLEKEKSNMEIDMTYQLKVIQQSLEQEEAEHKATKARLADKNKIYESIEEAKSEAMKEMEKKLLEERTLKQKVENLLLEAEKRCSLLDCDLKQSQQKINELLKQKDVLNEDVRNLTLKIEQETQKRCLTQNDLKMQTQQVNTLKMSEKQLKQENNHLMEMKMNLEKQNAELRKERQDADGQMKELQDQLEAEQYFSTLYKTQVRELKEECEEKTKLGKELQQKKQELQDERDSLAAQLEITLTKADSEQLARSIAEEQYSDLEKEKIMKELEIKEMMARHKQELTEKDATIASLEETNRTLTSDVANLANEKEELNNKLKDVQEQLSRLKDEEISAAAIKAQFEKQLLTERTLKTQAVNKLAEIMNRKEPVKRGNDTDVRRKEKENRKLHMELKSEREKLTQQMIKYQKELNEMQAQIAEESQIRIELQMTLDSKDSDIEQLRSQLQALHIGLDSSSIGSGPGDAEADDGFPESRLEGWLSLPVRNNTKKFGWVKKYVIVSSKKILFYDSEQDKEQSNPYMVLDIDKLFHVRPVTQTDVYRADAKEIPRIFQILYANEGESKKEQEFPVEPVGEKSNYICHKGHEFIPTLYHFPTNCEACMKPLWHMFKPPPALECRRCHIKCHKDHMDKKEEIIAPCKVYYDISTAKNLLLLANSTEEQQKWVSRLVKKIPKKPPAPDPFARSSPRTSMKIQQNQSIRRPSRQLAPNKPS

The test has as its target ROCK2 (human) (UniProt O75116). As to the kind of experiment: Inhibition of ROCK2 Kinase Activity.
On to `CN(CC(N)c1ccc(C(=O)Nc2ccncc2)cc1)C(=O)C1CCSc2ccc(F)cc21` (centres undefined), for which the half-maximal inhibitory concentration (IC50) lay in the range of 5000 to 50000 nM.

`NC(CNC(=O)c1ccc(Cl)cc1)c1ccc(C(=O)Nc2ccncc2)cc1` (centres undefined) came in with an IC50 of 500 to 5000 nM.

In the case of `CN(CC(N)c1ccc(C(=O)Nc2ccncc2)cc1)C(=O)C1(c2ccc(Cl)c(Cl)c2)CC1` (centres undefined), the IC50 was 500 to 5000 nM.

`CN(CC(N)c1ccc(C(=O)Nc2ccncc2)cc1)C(=O)C1(c2ccc(F)cc2)CCC1` (centres undefined): the IC50 was 500 to 5000 nM.

`CN(CC(N)c1ccc(C(=O)Nc2ccncc2)cc1)C(=O)C(C)(C)c1ccsc1` (centres undefined) yielded an IC50 of 500 to 5000 nM.

Molecule `NC(c1ccc(C(=O)Nc2ccncc2)cc1)C1CCCN1C(=O)C(c1ccccc1)C1CCCC1` (centres undefined) displayed an IC50 of 500 to 5000 nM.

The molecule `NC(c1ccc(C(=O)Nc2ccncc2)cc1)C1CCCN1C(=O)Cc1ccc(F)cc1` (centres undefined) displayed an IC50 of 500 to 5000 nM.

`NC(CNC(=O)c1cc2cc(Cl)ccc2o1)c1ccc(C(=O)Nc2ccncc2)cc1` (centres undefined): the IC50 lay in the range of 500 to 5000 nM.

As for `NC(CNC(=O)C1(c2ccc(F)c(F)c2)CC1)c1ccc(C(=O)Nc2ccncc2)cc1` (centres undefined), the IC50 fell in the range of 50 to 500 nM.

As to `CN(CC(N)c1ccc(C(=O)Nc2ccncc2)cc1)C(=O)C(C)(C)c1ccc(F)c(Cl)c1` (centres undefined), the IC50 was 500 to 5000 nM.

In turn, `CN(CC(N)c1ccc(C(=O)Nc2ccncc2)cc1)C(=O)Cc1ccc2ccccc2c1` (centres undefined) showed an IC50 of 50 to 500 nM.

As for `CN(CC(N)c1ccc(C(=O)Nc2ccncc2)cc1)C(=O)Cc1c[nH]c2ccccc12` (centres undefined), the IC50 was in the range of 500 to 5000 nM.

In the case of `NC(c1ccc(C(=O)Nc2ccncc2)cc1)C1CCCN1C(=O)C1(c2ccc(Cl)cc2F)CC1` (centres undefined), the IC50 lay within 500 to 5000 nM.

Molecule `CC1CCC(NC(=O)CC(N)c2ccc(C(=O)Nc3ccncc3)cc2)CC1` (centres undefined) returned an IC50 of 50 to 500 nM.

Molecule `NC(CC(=O)NCc1ccc(F)cc1Cl)c1ccc(C(=O)Nc2ccncc2)cc1` (centres undefined) gave an IC50 of 50 to 500 nM.

As for `COc1ccc(CC(=O)N2CCCC2C(N)c2ccc(C(=O)Nc3ccncc3)cc2)cc1F` (centres undefined), the IC50 fell in the range of 500 to 5000 nM.

In turn, `NC(CNC(=O)CC1C=CCC1)c1ccc(C(=O)Nc2ccncc2)cc1` (centres undefined) showed an IC50 of 50 to 500 nM.

`COc1ccccc1CNC(=O)CC(N)c1ccc(C(=O)Nc2ccncc2)cc1` (centres undefined) had an IC50 of 50 to 500 nM.

In turn, `NC(CNC(=O)CCc1cccnc1)c1ccc(C(=O)Nc2ccncc2)cc1` (centres undefined) displayed an IC50 of 500 to 5000 nM.

Regarding `NC(CNC(=O)Cc1c[nH]c2ccccc12)c1ccc(C(=O)Nc2ccncc2)cc1` (centres undefined), the IC50 was in the range of 50 to 500 nM.

On to `CC(=O)Nc1ccc(C(=O)NCC(N)c2ccc(C(=O)Nc3ccncc3)cc2)cc1` (centres undefined), for which the IC50 was in the range of 500 to 5000 nM.

As to `CN(CC(N)c1ccc(C(=O)Nc2ccncc2)cc1)C(=O)C1CCSc2ccccc21` (centres undefined), the IC50 was 5000 to 50000 nM.

As to `CC(=NOC(C)(C)C)c1ccc(C(=O)NCC(N)c2ccc(C(=O)Nc3ccncc3)cc2)s1` (centres undefined), the IC50 lay within 500 to 5000 nM.

In turn, `CC(C)(C(=O)NC[C@H](N)c1ccc(C(=O)Nc2ccncc2)cc1)c1ccc(Cl)cc1` returned an IC50 of 500 to 5000 nM.

On to `N[C@@H](CNC(=O)C1(c2ccc(Cl)cc2)CC1)c1ccc(C(=O)Nc2ccncc2)cc1`, for which the IC50 was in the range of 500 to 5000 nM.

Take `Nc1c(C(=O)NCC(N)c2ccc(C(=O)Nc3ccncc3)cc2)cnn1-c1ccc(F)cc1` (centres undefined): the IC50 lay within 500 to 5000 nM.

As for `CC(CNC(=O)CC(N)c1ccc(C(=O)Nc2ccncc2)cc1)c1ccccc1` (centres undefined), the IC50 lay within 50 to 500 nM.

`NC(CNC(=O)C1(c2ccc(F)c(F)c2)CCC1)c1ccc(C(=O)Nc2ccncc2)cc1` (centres undefined): the IC50 is 50 to 500 nM.

`COc1cc(OC)cc(C(=O)NCC(N)c2ccc(C(=O)Nc3ccncc3)cc2)c1` (centres undefined) returned an IC50 of 500 to 5000 nM.

In the case of `CN(C)CCCC(=O)NCC(N)c1ccc(C(=O)Nc2ccncc2)cc1` (centres undefined), the IC50 was 500 to 5000 nM.

Consider `Cc1ccc(CNC(=O)CC(N)c2ccc(C(=O)Nc3ccncc3)cc2)cc1Cl` (centres undefined), for which the IC50 lay within 50 to 500 nM.

The molecule `NC(CC(=O)NCc1ccc2c(c1)OCO2)c1ccc(C(=O)Nc2ccncc2)cc1` (centres undefined) showed an IC50 of 50 to 500 nM.

With `NC(CNC(=S)Nc1ccc(Cl)cc1)c1ccc(C(=O)Nc2ccncc2)cc1` (centres undefined), the IC50 lay within 50 to 500 nM.

For the molecule `NC(CNC(=O)C1CC1)c1ccc(C(=O)Nc2ccncc2)cc1` (centres undefined), the IC50 lay within 500 to 5000 nM.

Turning to `NC(CC(=O)NCc1ccc(Cl)cc1Cl)c1ccc(C(=O)Nc2ccncc2)cc1` (centres undefined), the IC50 was 50 to 500 nM.

The molecule `NC(CC(=O)NCc1ccco1)c1ccc(C(=O)Nc2ccncc2)cc1` (centres undefined) yielded an IC50 of 50 to 500 nM.

In turn, `NC(CNC(=O)c1ccc(-c2ccccc2)cc1)c1ccc(C(=O)Nc2ccncc2)cc1` (centres undefined) displayed an IC50 of 500 to 5000 nM.

For the molecule `NC(CNC(=O)C1(c2ccc(F)cc2)CC1)c1ccc(C(=O)Nc2ccncc2)cc1` (centres undefined), the IC50 was below 200 nM.

Consider `NC(CNC(=O)CCc1ccc(F)cc1)c1ccc(C(=O)Nc2ccncc2)cc1` (centres undefined), for which the IC50 fell in the range of 50 to 500 nM.

Consider `CC(C)(C(=O)NCC(N)c1ccc(C(=O)Nc2ccncc2)cc1)c1ccc(F)c(Cl)c1` (centres undefined), for which the IC50 lay within 50 to 500 nM.

`NC(CNC(=O)C1CCCO1)c1ccc(C(=O)Nc2ccncc2)cc1` (centres undefined) showed an IC50 of 500 to 5000 nM.

Molecule `CC(C)CC(=O)NCC(N)c1ccc(C(=O)Nc2ccncc2)cc1` (centres undefined) showed an IC50 of 500 to 5000 nM.

Take `NC(c1ccc(C(=O)Nc2ccncc2)cc1)C1CCCN1C(=O)C1(c2ccc(Cl)cc2)CCC1` (centres undefined): the IC50 lay within 500 to 5000 nM.

The molecule `CN(CC(N)c1ccc(C(=O)Nc2ccncc2)cc1)C(=O)C1(c2ccc(Cl)c(Cl)c2)CCC1` (centres undefined) registered an IC50 of 500 to 5000 nM.

Broadly, the IC50 is the concentration at which inhibition is half-maximal. High values mean weaker potency in that assay, low ones greater potency in that assay.
